Measured values as given in patent US20220362279A1, “USE OF OLIGONUCLEOTIDES FOR THE TREATMENT AND PREVENTION OF PAIN” (CONSEJO NACIONAL DE INVESTIGACIONES CIENTÍFICAS Y TÉCNICAS, priority 2018, published 2022).
“Also recorded” adds a separate entry of the source. Strand notation (5' to 3'): a small letter for the sugar, then the base; units joined by * are phosphorothioate-linked, units joined directly phosphodiester-linked; [ ] holds rarer units or linkages, { } end groups; capitals alone tell only the bases. d = 2'-deoxy (DNA)

Tests used:
Type in all cases: in vivo, rat
[1] = test system: rats with hind paw inflammation (CFA rats); assay: Cold allodynia (acetone drop) in rats with CFA-induced hind paw inflammation
Protocol: In fifty-two rats anesthetized with Isoflurane (5% induction, 2.5% maintenance, 0.8 L/min O2 flow rate; Piramal Healthcare, UK), the right hind paw was injected intra-dermally with 100 μl of CFA (1:1, dissolved in normal saline; Sigma-Aldrich, Mo., USA), using a 1 ml syringe with a 25G needle attached. The animals (from now on, called CFA rats) were left to recover from anesthesia in a warm and quiet environment before relocating them in their corresponding cages.
In one set of experiments, called “preventive treatment”, four rats received a daily dose of 20 mg/kg IMT504 for five consecutive days and four weeks later one dose of 6 mg/kg (group a); a second group of four rats received one dose of 6mg/kg of IMT504 (group b) (FIG. 1A). Three days after the single injection of 6 mg/kg IMT504, all eight rats received intra-plantar CFA, after which they were tested for mechanical and cold allodynia during 21 days. At day 28, group b received an additional administration of IMT504 at a dose of 3 mg/kg and was evaluated until day 35.
For cold allodynia assessment, the reaction to the application of a drop of acetone onto the plantar surface of the hind paw was used. Both frequency of withdrawal and cold score (pain-like behavior intensity) were measured. […]

naïve rats = assay: Tail immersion test (tail heat nociception) in naïve rats; conditions: 20 mg/kg daily x5; observed up to 22 days; 52° C. bath
Protocol: Naïve (uninjured and untreated; n=16), CFA injured untreated (n=10), and vehicle-treated CFA (n=9) or SNI rats (n=10) were used as controls. Eight naïve rats remained untreated, four were vehicle-treated, and four received a daily dose of 20 mg/kg IMT504 for five consecutive days. Untreated CFA rats received an intradermal hind paw injection of CFA and no further treatment. Vehicle-treated CFA rats received five daily subcutaneous injections of saline (200 μl), starting seven days after injury. Vehicle-treated SNI rats received one single dose of saline (200 ul), starting seven days after injury.
For acute thermal nociception assessment, the tail immersion test was used. The latency of tail-flick reflex to swift immersion of the last 3 cm of the tip of the tail of each rat on a hot bath (52° C.) was measured using a stopwatch (resolution of 0.01 s). This was repeated three times, with 10 s intervals, and an average response was obtained.

[2] = test system: rats with postsurgical pain (plantar incision); assay: Naloxone challenge in IMT504-pre-treated rats with plantar incision, mechanical withdrawal threshold
Protocol: In all experiments, the oligodeoxynucleotide (ODN) IMT504, with sequence 5′-[sequence]-3′ (SEQ ID No 1) was used. The HPLC-grade phosphorothioate ODN (Biosynthesis Inc., Lewisville, Tex., USA) was suspended in sterile saline solution (VEH, 0.9% NaCl; 20 mg/ml; storage concentration) and assayed for LPS contamination. Working concentration doses (6 mg/kg) were obtained by additional dissolving in sterile VEH. The ODN was administered subcutaneously, at a final volume of 200-300 μl, depending on animal weight.
A group of rats also received an intraperitoneal (i.p.) injection of naloxone hydrochloride (Narxona 0.4 mg/ml; Scott-Cassara, Bs. As., Argentina), at a dose of 2 mg/kg, in order to test if the effect of IMT504 could be blocked by the pan-opioid receptor antagonist.
The rat hind paw plantar incision model of postoperative pain was used as previously described [Brennan, T. J., E. P. Vandermeulen, and G. F. Gebhart, Characterization of a rat model of incisional pain. […] Briefly, rats were anesthetized using isoflurane (5% induction, 2.5% maintenance, 0.8 l/min O2 flow rate; Piramal Healthcare, UK) and the plantar aspect of the right hind paw was disinfected with povidone iodine. A 1.0-cm longitudinal incision was made 0.5 cm from the end of the heel. The underlying flexor muscle was also incised longitudinally, allowing the muscle origin and insertion to remain intact. After hemostasis by gentle pressure, the skin was closed with sutures of 5-0 nylon.
Rats were divided into injured rats receiving IMT504 (6 mg/kg, dissolved in VEH) or VEH alone, 48h and 24 h prior to surgery. […]
Mechanical withdrawal thresholds were assessed by using von Frey nylon monofilaments of different bending forces (1.4, 2, 6, 8, 10, 15 and 26 g; Stoelting Inc., Wooddale, USA) and the modified up-down method of Dixon, as described by Chaplan and cols. (Chaplan, S. R., et al., Quantitative assessment of tactile allodynia in the rat paw. J Neurosci Methods, 1994. 53(1): p. 55-63) , to establish the 50% withdrawal threshold. […]

[3] = test system: rats with post-incisional pain; assay: Cold allodynia in rats with post-incisional pain (plantar incision); conditions: 6 mg/kg s.c. 48 h and 24 h before incision; particularly apparent 3 days after injury
Text: In twenty-four rats anesthetized with Isoflurane (5% induction, 2.5% maintenance, 0.8 L/min O2 flow rate; Scott-Cassara, Argentina), the right hind paw plantar skin was cleaned and disinfected. This was followed by a 1-cm longitudinal incision distal to heel and extending towards the toes, as previously described (Xu J, et al., 2011, 24(5): 508-514). The incision involved both plantar skin and fascia. This was followed by identification and longitudinal incision of plantar […] muscle, leaving its insertions intact. After achieving homeostasica, skin was sutured using a 5-0 nylon suture, protected with an antibacterial cream and the animal was returned to its retention cage, under observation, until full recovery from anesthesia.
Rats were subcutaneously administered 6 mg/kg of IMT504, 48 and 24 h before implementing the post-incisional pain model. This was followed by pain-like behavior testing for up to 21 days after injury.
For cold allodynia assessment, the reaction to the application of a drop of acetone onto the plantar surface of the hind paw was used, as previously described. Frequency of withdrawal to cold stimuli was measured.

[4] = 6 mg/kg 3 days before CFA (FIG. 7)
[5] = 6 mg/kg 3 days before CFA, booster 3 mg/kg day 28
[6] = 20 mg/kg daily x5 plus single 6 mg/kg three days before CFA

“IMT504: synthetic phosphorothioate oligodeoxynucleotide with sequence 5′-TCATCATTTTGTCATTTTGTCATT-3′ (SEQ ID No 1) (DNA dT*dC*dA*dT*dC*dA*dT*dT*dT*dT*dG*dT*dC*dA*dT*dT*dT*dT*dG*dT*dC*dA*dT*dT)” was tested, and the “period after induction of inflammation during which IMT504 prevents cold allodynia” value [1, 4] was 1 days, the “time of reaching cold allodynic levels comparable to vehicle-treated rats” value [1, 4] was 7 days after injury and the “effect of an additional dose of 3 mg/kg IMT504 28 days after injury on cold allodynia” value [1, 5] was “full anti-allodynic effect; also recorded: complete reduction in mechanical and cold allodynia”. The “time at which the anti-allodynic effect (cold) of the reinforcement dose is lost” value [1, 5] was 35 days after injury, the “progression of cold allodynia” value [1, 6] was “very slow increase in cold withdrawal frequency; also recorded: slow progression towards cold allodynia” and the “time of peak of cold allodynia” value [1, 6] was 21 days after injury. For the same substance, the “frequency of cold allodynia” value ([1]; both preventive groups, twenty days after injury) was 60%, the “time of peak of cold allodynia” value ([1]; single dose of 6 mg/kg only, three days before CFA) was 21 days after injury and the “protection against cold allodynia” value ([1]; single dose of 6 mg/kg only, three days before CFA, 6 mg/kg) was “more moderate anti-allodynic effect; also recorded: milder protection against cold allodynia”. The “cold allodynia vs injured vehicle-treated rats, days 1 and 3 after injury” value ([1]; single preventive dose of 6 mg/kg (FIG. 11B)) was “significantly lower than that observed in injured vehicle-treated rats”, the “cold allodynia vs vehicle-treated rats, from day 7 on” value ([1]; single preventive dose of 6 mg/kg (FIG. 11B), differences not statistically significant) was “always showed lower levels of cold allodynia than vehicle-treated rats” and the “tail thermal withdrawal latency in naïve rats” value (naïve rats) was “did not shown changes; also recorded: did not show any evident changes”. For the same substance, the “anti-allodynic effect of IMT504 under systemic non-selective opioid receptor antagonist” value ([2]; naloxone 2 mg/kg i.p. at day 3 after injury (FIG. 18)) was “temporarily blocked”, the “mechanical allodynia on day 3 after injury” value ([2]; two doses of pre-emptive IMT504 (6 mg/kg, 48 h and 24 h before surgery)) was “completely abolished” and the “cold allodynia after plantar incision” value [3] was “significant reduction in cold allodynia”.
